Laboratory results taken from US20020143059A1, “Skin care product containing retinoids, retinoid booster and phytoestrogens in a dual compartment package” (priority 2000, published 2002).

Legend:
[1] = test system: retinoic acid oxidation (cytochrome P450 systems); experiment: Assay for NADPH Dependent Retinoic Acid Oxidation, liver microsomes; format: biochemical, rat; conditions: for % Inhibition Retinoic Acid (10 μM): 10 μM compound; for % Inhibition Retinoic Acid (100 μM): 100 μM compound
[2] = Retinol stability in the presence of boosters (OD 360 nm); format: physicochemical; conditions: booster approximately 0.1%, 60 hours at room temperature in the dark, approx. 50% aqueous ethanol
Description: Retinol (50% in tween 80) was dissolved in approximately 50% aqueous ethanol to provide a solution giving an OD at 360 nm of approximately 0.6 when measured in a 200 μl volume in a 96 well plate using a standard 96 well spectrophotometer.
Booster molecules were added at approximately 0.1% concentration and the OD 360 measured as above immediately and after 60 hours at room temperature in the dark. A correction was applied to the OD after 60 hours (divide by 0.85) to account for increased concentration of the retinol due to evaporation of solvent from the plate.

ARAT = experiment: Assay for ARAT activity, RPE microsomes; format: biochemical, bovine; conditions: 100 μm compound
TGase I = experiment: Transglutaminase (TGase I ELISA) assay in cultured keratinocytes; format: cell-based; conditions: booster in combination with a constant retinol concentration of 10^−7M; read-out: Overall TG (IC 50)
LRAT = molecular target: T1, LRAT (Bos taurus, UniProt Q9BGL2); experiment: Assay for LRAT activity, RPE microsomes; format: biochemical, bovine; conditions: 100 μm compound
T1 construct: followed by approximately 15 μg of RPE microsomal protein; tissue W. L. Lawson Co., Lincoln, Nebr; host or cells: bovine retinal pigment epithelium microsomes
T1 sequence (Q9BGL2 1-230): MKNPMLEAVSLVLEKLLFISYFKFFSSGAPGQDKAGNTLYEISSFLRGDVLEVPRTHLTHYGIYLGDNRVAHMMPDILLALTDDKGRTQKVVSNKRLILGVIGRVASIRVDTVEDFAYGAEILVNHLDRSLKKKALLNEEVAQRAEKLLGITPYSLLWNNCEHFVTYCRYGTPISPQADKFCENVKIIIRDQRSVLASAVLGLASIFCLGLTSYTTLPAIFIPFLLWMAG

CRABP-II = CRABP-II expression in adult fibroblasts (dot blot); format: cell-based, human; conditions: for CRABP-II production: 48 hours; for % as Control: control as 100%

Molecule: CC(=O)N1CCN(c2ccc(OCC3COC(Cn4ccnc4)(c4ccc(Cl)cc4Cl)O3)cc2)CC1 (stereo not shown) [Ketoconazole]
- % Inhibition Retinoic Acid (10 μM) [1]: 84%
- % Inhibition Retinoic Acid (100 μM) [1]: 84%

Molecule: CCCCCCCCCCCC(=O)N(C)CC(=O)O [Lauroyl Sarcosine]
- FOLD INCREASE IN RATE OF RETINOL LOSS [2]: 2.6 fold
- % Inhibition ARAT (100 μm) (ARAT): 20%

Molecule: CCCCCCCCCCCC1=NCCN1CCO [Lauryl Hydroxyethylimidazoline]
- IC50 (TGase I): 0.467 µM

Molecule: CCN(CC)CC(=O)Nc1c(C)cccc1C [Lidocaine, reference compound]
- % Inhibition ARAT (100 μm) (ARAT): 12%

Molecule: CCCCC/C=C\C/C=C\CCCCCCCC(=O)NCCCN(C)C [Linoleamidopropyl Dimethylamine]
- % Inhibition ARAT (100 μm) (ARAT): 69% +/− 18

Molecule: CCCCC/C=C\C/C=C\CCCCCCCC(=O)NCCO [Linoleoyl Monoethanolamide]
- IC50 (TGase I): 16.1 µM

Molecule: CC(C)(O)CCCC1=CCC(C=O)CC1 (stereo not shown) [Lyral]
- % Inhibition ARAT (100 μm) (ARAT): 76%

Molecule: CCCCC/C=C/C/C=C/CCCCCCCC(=O)NC(C)c1ccccc1 (stereo not shown) [Melinamide, reference compound]
- % Inhibition ARAT (100 μm) (ARAT): 64% +/− 15

Molecule: Clc1ccc(COC(Cn2ccnc2)c2ccc(Cl)cc2Cl)c(Cl)c1 (stereo not shown) [Miconazole]
- % Inhibition Retinoic Acid (10 μM) [1]: 74%
- % Inhibition Retinoic Acid (100 μM) [1]: 86%

Molecule: CCCCCCCCCCCCCC(=O)N(C)CC(=O)O [Myristoyl Sarcosine]
- % Inhibition ARAT (100 μm) (ARAT): 41% +/− 14

Molecule: O=C1C[C@@H](c2ccc(O)cc2)Oc2cc(O)cc(O)c21 [Naringenin]
- % Inhibition ARAT (100 μm) (ARAT): 33%

Molecule: CCCCCCCC/C=C\CCCCCCCC[N+](C)(C)CC(=O)[O-] [Oleyl Betaine]
- % Inhibition ARAT (100 μm) (ARAT): 47%
- IC50 (TGase I): 28 µM

Molecule: CCCCCCCC/C=C\CCCCCCCC1=NCCN1CCO [Oleyl Hydroxyethylimidazoline]
- IC50 (TGase I): 30.2 µM

Molecule: CC(=O)/C=C/C=C(\C)CCC=C(C)C [Pseudoionone]
- % Inhibition LRAT (100 μm) (LRAT): 37%

Molecule: O=c1c(O)c(-c2ccc(O)c(O)c2)oc2cc(O)cc(O)c12 [Quercetin]
- % Inhibition Retinoic Acid (10 μM) [1]: 40%
- % Inhibition Retinoic Acid (100 μM) [1]: 74%

Molecule: CC1=C(/C=C/C(C)=C/C=C/C(C)=C/C(=O)O)C(C)(C)CCC1 [Retinoic acid, reference compound]
- CRABP-II production (CRABP-II; 1 nM retinoid alone): 0.97+/−0.47
- % as Control (CRABP-II; 1 nM retinoid alone): 335+/−162%
- CRABP-II production (CRABP-II; 10 nM retinoid alone): 1.24+/−0.29
- % as Control (CRABP-II; 10 nM retinoid alone): 428+/−101%

Molecule: CC(=O)OC/C=C(C)/C=C/C=C(C)/C=C/C1=C(C)CCCC1(C)C [Retinyl Acetate]
- CRABP-II production (CRABP-II; 100 nM retinoid alone): 0.60+/−0.32
- % as Control (CRABP-II; 100 nM retinoid alone): 209+/−118%

Molecule: CCCCC/C=C\C/C=C\CCCCCCCC(=O)OC/C=C(C)/C=C/C=C(C)/C=C/C1=C(C)CCCC1(C)C [Retinyl Linoleate]
- CRABP-II production (CRABP-II; 100 nM retinoid alone): 0.52+/−0.3
- % as Control (CRABP-II; 100 nM retinoid alone): 181+/−110%

Molecule: CCCCCCCCCCCCCCCC(=O)OC/C=C(C)/C=C/C=C(C)/C=C/C1=C(C)CCCC1(C)C [Retinyl Palmitate]
- CRABP-II production (CRABP-II; 100 nM retinoid alone): 1.26+/−0.51
- % as Control (CRABP-II; 100 nM retinoid alone): 434+/−177%

Molecule: CC(=O)C1(C)C2CC3C(C2)C31C (stereo not shown) [Santalone]
- % Inhibition ARAT (100 μm) (ARAT): 23%
- % Inhibition LRAT (100 μm) (LRAT): 12%

Molecule: CCCC(O)CCC1C(C)CCCC1(C)C (stereo not shown) [Timberol]
- % Inhibition LRAT (100 μm) (LRAT): 33%

Molecule: CC(=O)c1cc2c(cc1C)C(C)(C)C(C)CC2(C)C (stereo not shown) [Tonalid]
- % Inhibition ARAT (100 μm) (ARAT): 50%

Molecule: CC(=O)c1cc2c(cc1C)C(C)(C)[C@H](C)[C@H]2C(C)C [Traseolide]
- % Inhibition ARAT (100 μm) (ARAT): 41%

Molecule: COCAMIDE DEA
- FOLD INCREASE IN RATE OF RETINOL LOSS [2]: 1.9 fold

Molecule: Castor Oil MEA
- IC50 (TGase I): 32.5 µM

Molecule: Coco Hydroxyethylimidazoline
- % Inhibition LRAT (100 μm) (LRAT): 68%

Molecule: Coco Trimethylammonium Cl-
- % Inhibition ARAT (100 μm) (ARAT): 27%

Molecule: Cocoyl Monoethanolamide
- % Inhibition ARAT (100 μm) (ARAT): 13%
- % Inhibition LRAT (100 μm) (LRAT): 34%

Molecule: DAMASCONE
- FOLD INCREASE IN RATE OF RETINOL LOSS [2]: 3.7 fold

Molecule: Glycerol-PCA-Oleate
- % Inhibition ARAT (100 μm) (ARAT): 41% +/− 6
- % Inhibition LRAT (100 μm) (LRAT): 58% +/− 2

Molecule: Hydroxyquinoline (Carbostyril)
- IC50 (TGase I): 364 µM

Molecule: Isobutyl Ionone
- % Inhibition ARAT (100 μm) (ARAT): 8%
- % Inhibition LRAT (100 μm) (LRAT): 45%

Molecule: Santanol
- % Inhibition ARAT (100 μm) (ARAT): 15%
- % Inhibition LRAT (100 μm) (LRAT): 43%
